Measurements: patent publication US11667602B2, “Compounds and their use” (AstraZeneca AB, priority 2020, dated 2023)
Converted amounts (≈) assume the structure as drawn. Where two headings read alike, the source gives them in different places.

Tests used:
[1] = target: T1, human RXFP1 (Homo sapiens, UniProt Q9HBX9); assay: RXFP1 Hu cAMP (Test A); format: cell-based; design: expressed in transfected cells; host or cells: Jump-In T-REx CHO-K1 cells (ThermoFisher), induced with 10 ng/ml doxycycline for 24 h
T1 sequence (Q9HBX9 1-757): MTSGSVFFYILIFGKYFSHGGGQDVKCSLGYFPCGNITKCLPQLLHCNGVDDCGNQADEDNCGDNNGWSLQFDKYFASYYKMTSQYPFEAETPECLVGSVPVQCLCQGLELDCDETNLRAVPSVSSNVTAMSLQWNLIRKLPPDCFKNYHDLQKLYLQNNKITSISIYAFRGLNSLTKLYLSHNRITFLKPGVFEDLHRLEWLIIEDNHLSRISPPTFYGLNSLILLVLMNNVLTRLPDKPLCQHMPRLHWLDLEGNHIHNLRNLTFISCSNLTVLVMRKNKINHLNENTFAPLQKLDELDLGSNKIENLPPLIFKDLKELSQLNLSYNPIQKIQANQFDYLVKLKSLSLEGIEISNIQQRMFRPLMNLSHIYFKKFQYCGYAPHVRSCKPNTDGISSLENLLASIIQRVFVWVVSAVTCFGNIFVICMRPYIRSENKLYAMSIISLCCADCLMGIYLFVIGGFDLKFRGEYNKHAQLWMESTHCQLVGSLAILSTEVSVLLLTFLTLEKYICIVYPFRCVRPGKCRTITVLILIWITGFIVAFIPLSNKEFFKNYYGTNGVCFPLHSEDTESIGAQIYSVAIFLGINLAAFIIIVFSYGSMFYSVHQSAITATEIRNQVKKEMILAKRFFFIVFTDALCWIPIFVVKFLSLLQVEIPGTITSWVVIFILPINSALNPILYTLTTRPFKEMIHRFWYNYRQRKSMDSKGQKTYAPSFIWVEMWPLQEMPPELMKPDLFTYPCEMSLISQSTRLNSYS
Summary of the method: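 Read-out is HTRF signal, inversely proportional to cAMP, converted to cAMP amount by standard curve. Stimulation occurred in inducible CHO-K1 cells expressing the human receptor with phosphodiesterases blocked by 0.5 mM IBMX.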

[2] = Human Hepatocyte Stability (Test D); format: in vitro ADME; settings: geometric mean if run multiple times; for hepatocyte CLint at 1 µM: human, cryopreserved pooled human hepatocytes (LiverPool 10-Donor)
Summary of the method: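 Intrinsic clearance (μL/min/10^6 cells), derived as kV/N from the log-linear loss of parent compound. Compound incubated at 37 °C with cryopreserved pooled human hepatocytes, 0.25×10^6 cells in 0.25 mL L-15; dosing solution 100 μM in acetonitrile. Singlicate incubations, cassette LC-MS; repeats reported as geometric mean.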

[3] = Human Liver Microsomal Stability (Test C); format: in vitro ADME; settings: for microsomal CLint: human, liver microsomes
Summary of the method: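 CLint (μl/min/mg protein) derived from compound depletion in human liver microsomes following a published standardized early-DMPK protocol; replicate determinations given as arithmetic mean.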

[4] = Human Plasma Protein Binding (Test B); format: in vitro ADME; settings: fraction unbound (fu)
Summary of the method: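 Values given as % free (fu) in human plasma, using the method of Wernevik et al. (2020). For compounds tested more than once, the arithmetic mean is given.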

[5] = Solubility (Test F); format: physicochemical; settings: arithmetic mean if run multiple times
Description: The assay was conducted according to the Solubility Assay described in pages 164-167 of Wernevik, J. et al., “A Fully Integrated Assay Panel for Early Drug Metabolism and Pharmacokinetics Profiling”, Assay and Drug Development Technologies, 2020, 18(4), 157-179. Data are reported in Table 36 as solubility ([…]. Where the assay was run multiple times for the same compound, the arithmetic mean is reported.

[6] = Rat Hepatocyte Stability (Test E); format: in vitro ADME; settings: geometric mean if run multiple times; for hepatocyte CLint: rat, hepatocytes
Summary of the method: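 Intrinsic clearance in rat hepatocytes, expressed as μl/min/10^6 cells, following the literature integrated DMPK panel method. Repeat determinations combined as geometric mean.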

[7] = RXFP1 Hu cAMP, read-out: Test A EC50

Row | Compound | Test A Sinf ([1]; RXFP1 Hu cAMP) [%] | EC50 [1, 7] [µM] | hepatocyte CLint at 1 µM [2] [µL/min/1e6 cells] | microsomal CLint [3] [µL/min/mg] | Test B Human Plasma Protein Binding (% free) [4] [% free] | solubility [5] [µM] | hepatocyte CLint [6] [µL/min/1e6 cells] | Test D Human Hepatocyte Stability Clint ([2]; human hepatocytes) [μL/min/10^6 cells] | Test C Human Liver Microsomal Stability Clint ([3]; human liver microsomes) [µL/min/mg] | Test E Rat Hepatocyte Stability Clint ([6]; rat hepatocytes) [μL/min/10^6 cells] | EC50 ([1]; Test A EC50, RXFP1 Hu cAMP) [µM]
1 | COc1cc(F)c(O[C@H]2C[C@H](C(=O)O)C2)cc1C(=O)NC1[C@H]2CC[C@H](C2)[C@@H]1C(=O)Nc1cccc(S(=O)(=O)C(F)(F)F)c1 (stereo partly drawn) [Example 443] | 101 | 0.54 | 26 | 31 | 1.5 | 760 (≈ 478 µg/mL) | 21 | – | – | – | –
2 | COc1cc(F)c(O[C@H]2CC[C@@](C)(C(N)=O)CC2)cc1C(=O)N[C@@H]1[C@H]2CC[C@H](C2)[C@@H]1C(=O)NCC1(F)CCOCC1 [Example 147, (1R,2S,3R,4S)-3-(5-(((1s,4S)-4-Carbamoyl-4-methylcyclohexyl)oxy)-4-fluoro-2-methoxybenzamido)-N-((4-fluorotetrahydro-2H-pyran-4-yl)methyl)bicyclo-[2.2.1]heptane-2-carboxamide] | 111 | > 4.2 | – | – | 36 | 1000 (≈ 578 µg/mL) | – | 6.1 | 88 | 67 | –
3 | CCC1(CNC(=O)[C@H]2[C@@H]3CC[C@@H](C3)[C@H]2NC(=O)c2cc(O[C@H]3CC[C@@](C)(C(=O)O)CC3)c(F)cc2OC)CCC1 [Example 617] | 101 | 0.05 | 12 | 120 | 2.4 | 810 (≈ 453 µg/mL) | 13 | – | – | – | –
4 | COc1cc(F)c(O[C@H]2CC[C@@H](C(=O)O)CC2)cc1C(=O)N[C@@H]1[C@H]2CC[C@H](C2)[C@@H]1C(=O)Nc1ccc(C(F)F)cc1 [Example 181, (1S,4s)-4-(5-(((1S,2R,3S,4R)-3-((4-(Difluoromethyl)phenyl)carbamoyl)bicyclo[2.2.1]heptan-2-yl)carbamoyl)-2-fluoro-4-methoxyphenoxy)cyclohexane-1-carboxylic acid] | 95 | 0.6 | 4.1 | 13 | 2.3 | 680 (≈ 391 µg/mL) | 48 | – | – | – | –
5 | COc1cc(F)c(-c2ccc(CC(=O)O)cc2)cc1C(=O)N[C@H]1[C@@H](C(=O)Nc2cccc(S(=O)(=O)C(F)(F)F)c2)[C@@H]2C=C[C@H]1C2 (racemic) [Example 234] | 110 | 0.088 | 6.5 | 4.7 | <0.30 | 690 (≈ 446 µg/mL) | 9.3 | – | – | – | –
6 | COc1cc(F)c(O[C@H]2C[C@@H](C(=O)O)C2)cc1C(=O)NC1[C@H]2CC[C@H](C2)[C@@H]1C(=O)Nc1cccc(S(=O)(=O)C(F)(F)F)c1 (stereo partly drawn) [Example 444] | 117 | 0.12 | 15 | 18 | 2.5 | > 1000 | 22 | – | – | – | –
7 | COc1cc(F)c(O[C@H]2CC[C@@H](C(=O)O)CC2)cc1C(=O)N[C@@H]1[C@H]2CC[C@H](C2)[C@@H]1C(=O)NCC(C)(C)C [Example 180, (1S,4s)-4-(2-Fluoro-4-methoxy-5-(((1S,2R,3S,4R)-3-(neopentylcarbamoyl)bicyclo[2.2.1]heptan-2-yl)carbamoyl)phenoxy)cyclohexane-1-carboxylic acid] | 100 | – | 2.2 | 6.8 | 14 | > 1000 | 130 | – | – | – | 0.95
8 | CC1(CNC(=O)[C@H]2[C@@H]3CC[C@@H](C3)[C@H]2NC(=O)c2cc(O[C@H]3CC[C@@](C)(C(=O)O)CC3)c(C#N)cc2F)CCC1 [Example 401] | 115 | – | 5.4 | 16 | 2.7 | 1000 (≈ 540 µg/mL) | 17 | – | – | – | 0.049
9 | COc1cc(C#N)c(O[C@H]2CC[C@@](C)(C(=O)O)CC2)cc1C(=O)NC1C2C=CC(CC2)C1C(=O)NCC1(C)CCC1 (single isomer, unassigned) [Example 540, (1R,4s)-4-(2-Cyano-4-methoxy-5-(((1R*,2S*,3R*,4S*)-3-(((1-methylcyclobutyl)methyl)carbamoyl)bicyclo[2.2.2]oct-5-en-2-yl)carbamoyl)phenoxy)-1-methylcyclohexane-1-carboxylic acid] | 104 | 0.02 | 8.5 | 20 | 6 | 1000 (≈ 564 µg/mL) | 19 | – | – | – | –
10 | CCC(CC)[C@@H](C)NC(=O)[C@H]1[C@@H]2CC[C@@H](C2)[C@H]1NC(=O)c1cc(O[C@H]2CC[C@@](C)(C(=O)O)CC2)c(F)cc1OC (single isomer, unassigned) [Example 145, (1S,4s)-4-(5-(((1S,2R,3S,4R)-3-(((R*)-3-Ethylpentan-2-yl)carbamoyl)bicyclo[2.2.1]heptan-2-yl)carbamoyl)-2-fluoro-4-methoxyphenoxy)-1-methylcyclohexane-1-carboxylic acid] | 95 | 1.3 | 14 | 180 | 0.81 | 870 (≈ 488 µg/mL) | 53 | – | – | – | –
11 | COc1cc(Cl)c(O[C@H]2CC[C@@](C)(C(=O)O)CC2)cc1C(=O)N[C@@H]1[C@H]2CC[C@H](C2)[C@@H]1C(=O)NCC(C)(C)C [Example 412] | 110 | 0.037 | 2.6 | 13 | 5.3 | 930 (≈ 511 µg/mL) | 24 | – | – | – | –
12 | COc1cc(F)c(O[C@H]2CC[C@@](C)(C(=O)O)CC2)cc1C(=O)N[C@@H]1[C@H]2CC[C@H](C2)[C@@H]1C(=O)NCC(C)(C)C#N [Example 47] | 111 | 0.2 | < 1 | < 3 | 21 | > 1000 | 17 | – | – | – | –
